Laboratory results reported in the supplement of paper PMC7661543.
± gives the standard deviation of the averaged measurements.

Columns and labels:
Assay in all cases: relative cell number vs DMSO control (72 h) (% of DMSO); higher = less growth inhibition (more cells)
Conditions in all cases: sgRNA knockout: sgNT
ZR-75-1 = system: ZR-75-1
Method: (§1)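 QMAP-Seq: a pool of 5 breast cancer cell lines (ZR-75-1, SKBR3, HCC-38, MDA-MB-231, BT-20), each carrying 12 doxycycline-inducible Cas9 sgRNA perturbations (11 knockouts plus non-targeting sgNT), was treated with compounds for 72 h at four 10-fold doses (10 nM-10 uM or 1 nM-1 uM range). Barcodes were amplified and sequenced, and cell number was interpolated from 293T spike-in standard curves. The result is expressed as % of the median of DMSO wells. Two biological replicates.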

SKBR3 = system: SKBR3
Method: as §1

BT-20 = system: BT-20
Method: as §1

MDA-MB-231 = system: MDA-MB-231
Method: as §1

HCC-38 = system: HCC-38
Method: as §1

Row | SMILES | relative cell number (ZR-75-1; 1 nM) | relative cell number (ZR-75-1; 10 nM) | relative cell number (ZR-75-1; 100 nM) | relative cell number (ZR-75-1; 1000 nM) | relative cell number (SKBR3; 1 nM) | relative cell number (SKBR3; 10 nM) | relative cell number (SKBR3; 100 nM) | relative cell number (SKBR3; 1000 nM) | relative cell number (BT-20; 1 nM) | relative cell number (BT-20; 10 nM) | relative cell number (BT-20; 100 nM) | relative cell number (BT-20; 1000 nM) | relative cell number (MDA-MB-231; 1 nM) | relative cell number (MDA-MB-231; 10 nM) | relative cell number (MDA-MB-231; 100 nM) | relative cell number (MDA-MB-231; 1000 nM) | relative cell number (HCC-38; 1 nM) | relative cell number (HCC-38; 10 nM) | relative cell number (HCC-38; 100 nM) | relative cell number (HCC-38; 1000 nM) | relative cell number (ZR-75-1; 10000 nM) | relative cell number (SKBR3; 10000 nM) | relative cell number (BT-20; 10000 nM) | relative cell number (MDA-MB-231; 10000 nM) | relative cell number (HCC-38; 10000 nM)
1 | CC(C)(C#N)c1cc(Cn2cncn2)cc(C(C)(C)C#N)c1 [Anastrozole] | 76.6 ± 1.4 | 151 ± 25 | 100 ± 3.4 | 120 ± 17 | 123 ± 23 | 90.3 ± 18 | 118 ± 17 | 103 ± 13 | 112 ± 1.8 | 103 ± 50 | 116 ± 12 | 114 ± 15 | 107 ± 8.8 | 110 ± 75 | 121 ± 17 | 115 ± 22 | 106 ± 9.5 | 116 ± 3.1 | 103 ± 5.8 | 115.2 ± 0.88 |  |  |  |  | 
2 | CCN1CCN(c2ccc(Nc3cc(N(C)C(=O)Nc4c(Cl)c(OC)cc(OC)c4Cl)ncn3)cc2)CC1 [BGJ398] |  | 77.02 ± 0.32 | 116 ± 13 | 105 ± 14 |  | 99.1 ± 6.7 | 106 ± 32 | 67.6 ± 6.6 |  | 80.6 ± 10 | 104 ± 1.5 | 88.5 ± 15 |  | 81.7 ± 12 | 83.1 ± 16 | 116 ± 2.1 |  | 93.6 ± 16 | 66.73 ± 0.28 | 60.5 ± 4.7 | 78.1 ± 26 | 75 ± 18 | 82.8 ± 18 | 65.2 ± 12 | 58.5 ± 0.79
3 | COC(=O)[C@]12CCC(C)(C)C[C@H]1[C@H]1C(=O)C=C3[C@@]4(C)C=C(C#N)C(=O)C(C)(C)[C@@H]4CC[C@@]3(C)[C@]1(C)CC2 [BardoxoloneMethyl] |  | 74.7 ± 11 | 49.3 ± 14 | 14.3 ± 2.1 |  | 100.4 ± 0.77 | 66.6 ± 13 | 7.42 ± 0.66 |  | 73.5 ± 19 | 66.2 ± 6.3 | 16.2 ± 4 |  | 109 ± 22 | 66.5 ± 37 | 16.4 ± 11 |  | 96 ± 7.2 | 99.93 ± 0.61 | 26.6 ± 3.4 | 5.42 ± 4.3 | 4.14 ± 0.45 | 4.97 ± 2.9 | 5.3 ± 1.9 | 5.24 ± 0.59
4 | Cn1c(CCCC(=O)O)nc2cc(N(CCCl)CCCl)ccc21 [Bendamustine] |  | 82.4 ± 11 | 123 ± 6.9 | 63.7 ± 27 |  | 86.7 ± 9.2 | 115 ± 21 | 118 ± 21 |  | 90.6 ± 14 | 114 ± 25 | 112 ± 33 |  | 111 ± 13 | 123 ± 10 | 95.8 ± 17 |  | 104 ± 6 | 103 ± 1.1 | 109 ± 17 | 97.9 ± 9.2 | 109 ± 44 | 124 ± 14 | 127 ± 3.8 | 115 ± 4.3
5 | C=C(C)[C@@H]1CC[C@]2(C(=O)O)CC[C@]3(C)[C@H](CC[C@@H]4[C@@]5(C)CC[C@H](O)C(C)(C)[C@@H]5CC[C@]43C)[C@@H]12 [BetulinicAcid] |  | 90.9 ± 11 | 97.1 ± 4.8 | 94.5 ± 43 |  | 76.3 ± 23 | 95 ± 13 | 86 ± 5.5 |  | 86.7 ± 12 | 78.6 ± 3.6 | 86.4 ± 13 |  | 74.3 ± 2.1 | 92.9 ± 11 | 69.8 ± 21 |  | 106 ± 10 | 82.2 ± 9.4 | 98 ± 32 | 110 ± 11 | 96.4 ± 11 | 108 ± 1.7 | 117 ± 24 | 96.4 ± 1.5
6 | C=C(c1ccc(C(=O)O)cc1)c1cc2c(cc1C)C(C)(C)CCC2(C)C [Bexarotene] |  | 97.6 ± 34 | 78.4 ± 27 | 72.2 ± 19 |  | 107 ± 4.7 | 72.8 ± 16 | 71.6 ± 34 |  | 122 ± 11 | 119 ± 25 | 112 ± 33 |  | 146 ± 83 | 73.6 ± 3.8 | 95.3 ± 16 |  | 85.51 ± 0.16 | 90.4 ± 9 | 94.9 ± 8 | 70.3 ± 5.1 | 90 ± 11 | 137 ± 30 | 80.2 ± 31 | 108 ± 8.4
7 | Cc1ccc2c(c1)C(=O)C1(O)CCN(c3ccccc3)C1=N2 (stereo not given) [Blebbistatin] |  | 108 ± 9.9 | 112 ± 9.8 | 98.1 ± 39 |  | 114 ± 20 | 111 ± 16 | 126 ± 11 |  | 115.9 ± 0.31 | 128 ± 6.2 | 130 ± 4 |  | 110 ± 16 | 138.4 ± 0.51 | 144 ± 49 |  | 125 ± 10 | 118 ± 4.2 | 115 ± 13 | 84.1 ± 7.3 | 96.52 ± 0.14 | 125 ± 46 | 97 ± 12 | 69.5 ± 7.5
8 | CC(C)C[C@H](NC(=O)[C@H](Cc1ccccc1)NC(=O)c1cnccn1)B(O)O [Bortezomib] | 72 ± 20 | 80 ± 17 | 17.2 ± 3.5 | 13.4 ± 2.8 | 94.4 ± 13 | 34.3 ± 8 | 14.2 ± 4.1 | 9.59 ± 4 | 71.71 ± 0.27 | 74.6 ± 13 | 24.7 ± 9.2 | 16.7 ± 2.3 | 86.7 ± 9.3 | 65.2 ± 19 | 6.68 ± 5 | 13.2 ± 6.6 | 91.8 ± 5.8 | 36.8 ± 2.4 | 4.58 ± 0.053 | 7.2 ± 1.2 |  |  |  |  | 
9 | C[C@H]1CCC/C=C/[C@@H]2C[C@H](O)C[C@H]2[C@H](O)/C=C/C(=O)O1 [BrefeldinA] |  | 86.8 ± 14 | 18.7 ± 2.6 | 8.03 ± 3.4 |  | 89.9 ± 43 | 17.7 ± 11 | 5.96 ± 2.5 |  | 84.9 ± 25 | 25.6 ± 6.2 | 31.1 ± 3.5 |  | 108 ± 22 | 14.1 ± 7.9 | 7.55 ± 2.6 |  | 92.1 ± 16 | 54.8 ± 7.7 | 35.3 ± 11 | 5.82 ± 3.4 | 6.07 ± 0.93 | 31.5 ± 9.4 | 9.31 ± 2.6 | 23.6 ± 7.5
10 | Cc1cc2c(F)c(Oc3ncnn4cc(OC[C@@H](C)O)c(C)c34)ccc2[nH]1 [Brivanib] |  | 86.5 ± 18 | 66.1 ± 24 | 111 ± 19 |  | 112 ± 6.1 | 61.5 ± 12 | 82.4 ± 11 |  | 119 ± 35 | 78.5 ± 1.6 | 109 ± 18 |  | 107 ± 31 | 106 ± 25 | 122 ± 9.6 |  | 96.9 ± 6.4 | 84.3 ± 9.9 | 96.7 ± 2.2 | 53.5 ± 20 | 60.9 ± 28 | 93.9 ± 4 | 58.7 ± 9.5 | 84.119 ± 0.073
11 | CC[C@H](Nc1ncnc2[nH]cnc12)c1nc2cccc(F)c2c(=O)n1-c1ccccc1 [CAL101] |  | 76.6 ± 14 | 95.6 ± 7.7 | 84.5 ± 3.2 |  | 77.4 ± 19 | 91.3 ± 18 | 87.3 ± 49 |  | 96.9 ± 17 | 97.88 ± 0.52 | 88.6 ± 25 |  | 122 ± 4.8 | 68.4 ± 19 | 118 ± 38 |  | 87.5 ± 13 | 96.1 ± 14 | 86.7 ± 14 | 72 ± 15 | 84.2 ± 3.7 | 88.8 ± 26 | 110 ± 9.4 | 83.8 ± 32
12 | COc1cc2nccc(Oc3ccc(NC(=O)C4(C(=O)Nc5ccc(F)cc5)CC4)cc3)c2cc1OC [Cabozantinib] |  | 132 ± 14 | 102 ± 2.8 | 111 ± 40 |  | 128 ± 10 | 130 ± 11 | 82.9 ± 26 |  | 110 ± 3.4 | 98.3 ± 13 | 94.5 ± 5 |  | 103 ± 8.6 | 88.2 ± 3.7 | 100 ± 3.8 |  | 87.7 ± 22 | 104 ± 2.3 | 97.8 ± 2.8 | 28.3 ± 19 | 25.8 ± 17 | 49.8 ± 18 | 36.7 ± 24 | 61.9 ± 9.7
